Data from patent US20220409727A1, “Metal Complexes Bearing Bisstyryl-Bipyridine Ligand and Their Use as Photosensitizer Agent in One and Two-Photon Photodynamic Therapy” (Paris Sciences et Lettres, priority 2019, published 2022).
Read-outs that look alike come from different tables or passages of the source.

How the values were obtained:
[1] = Emission measurement in CH3CN; assay type: physicochemical; details: room temperature, excitation at 355 nm
Experimental: The absorption of the samples was measured with a SpectraMax M2 Spectrometer (Molecular Devices). The emission was measured by irradiation of the sample in fluorescence quartz cuvettes (width 1 cm) using a NT342B Nd-YAG pumped optical parametric oscillator (Ekspla) at 355 nm. Luminescence was focused and collected at right angle to the excitation pathway and directed to a Princeton Instruments Acton SP-2300i monochromator. As a detector, a XPI-Max 4 CCD camera (Princeton Instruments) has been used.

[2] = Luminescence quantum yield measurements; assay type: physicochemical; set-up: key: fraction, relative to [Ru(bipy)3]Cl2 reference in CH3CN (Φem=5.9%); details: CH3CN, room temperature, excitation at 355 nm
Experimental: For the determination of the luminescence quantum yield, the samples were prepared in an CH3CN solution with an absorbance of 0.1 at 355 nm. This solution was irradiated in fluorescence quartz cuvettes (width 1 cm) using a NT342B Nd-YAG pumped optical parametric oscillator (Ekspla) at 355 nm. The emission signal was focused and collected at right angle to the excitation pathway and directed to a Princeton Instruments Acton SP-2300i monochromator. As a detector a XPI-Max 4 CCD camera (Princeton Instruments) has been used. The luminescence quantum yields were determined by comparison with the reference [Ru(bipy)3]Cl2 in CH3CN (Φem=5.9%) (Nakamaru, K., 1982) applying the following formula:
Φem, sample=Φem, reference*(Freference/Fsample)*(Isample/Ireference)*(nsample/nreference)^2
Φem=luminescence quantum yield, F=fraction of light absorbed, I=integrated emission intensities, n=refractive index, A=absorbance of the sample at irradiation wavelength.

[3] = Luminescence lifetime measurements; assay type: physicochemical; details: excitation at 355 nm; for τ/ns air (Lifetime): air saturated CH3CN; for τ/ns degassed (Lifetime): degassed CH3CN
Experimental: For the determination of the lifetimes, the samples were prepared in an air saturated and in a degassed CH3CN solution with an absorbance of 0.2 at 355 nm. This solution was irradiated in fluorescence quartz cuvettes (width 1 cm) using a NT342B Nd-YAG pumped optical parametric oscillator (Ekspla) at 355 nm. The emission signal was focused and collected at right angle to the excitation pathway and directed to a Princeton Instruments Acton SP-2300i monochromator. As a detector a R928 photomultiplier tube (Hamamatsu) has been used.

[4] = Singlet oxygen measurement, direct evaluation (1O2 luminescence at 1270 nm); assay type: physicochemical
Experimental: The samples were prepared in an air saturated CH3CN or D2O solution with an absorbance of 0.2 at 450 nm. This solution was irradiated in fluorescence quartz cuvettes (width 1 cm) using a mounted M450LP1 LED (Thorlabs) whose irradiation, centered at 450 nm, has been focused with aspheric condenser lenses. The intensity of the irradiation has been varied using a T-Cube LED Driver (Thorlabs) and measured with an optical power and energy meter. The emission signal was focused and collected at right angle to the excitation pathway and directed to a Princeton Instruments Acton SP-2300i monochromator. A longpass glass filter was placed in front of the monochromator entrance slit to cut off light at wavelengths shorter than 850 nm. As a detector an EO-817L IR-sensitive liquid nitrogen cooled germanium diode detector (North Coast Scientific Corp.) has been used. The singlet oxygen luminesce at 1270 nm was measured by recording spectra from 1100 to 1400 nm. For the data analysis, the singlet oxygen luminescence peaks at different irradiation intensities were integrated. The resulting areas were plotted against the percentage of the irradiation intensity and the slope of the linear regression calculated. The absorbance of the sample was corrected with an absorbance correction factor. As reference for the measurement Rose Bengal (Φ=76%) (Kochevar, I. E. and Redmond, R. W., 2000) was used and the singlet oxygen quantum yields were calculated using the following formula:
Φsample=Φreference*(Ssample/Sreference)*(Ireference/Isample)
Φ=singlet oxygen quantum yield, S=slope of the linear regression of the plot of the areas of the singlet oxygen luminescence peaks against the irradiation intensity, I=absorbance correction factor, […] of the irradiation source, A=absorbance of the sample at irradiation wavelength.

[5] = Singlet oxygen measurement, indirect evaluation (RNO absorbance); assay type: physicochemical; details: indirect
Experimental: For the measurement in CH3CN: The samples were prepared in an air-saturated CH3CN solution containing the complex with an absorbance of 0.2 at the irradiation wavelength, N,N-dimethyl-4-nitrosoaniline aniline (RNO, 24 μM) and imidazole (12 mM). For the measurement in PBS buffer: The samples were prepared in an air-saturated PBS solution containing the complex with an absorbance of 0.1 at the irradiation wavelength, N,N-dimethyl-4-nitrosoaniline aniline (RNO, 20 μM) and histidine (10 mM). The samples were irradiated on 96 well plates with an Atlas Photonics LUMOS BIO irradiator for different times. The absorbance of the samples was measured during these time intervals with a SpectraMax M2 Microplate Reader (Molecular Devices). The difference in absorbance (A0−A) at 420 nm for the CH3CN solution or at 440 nm a PBS buffer solution was calculated and plotted against the irradiation times. From the plot the slope of the linear regression was calculated as well as the absorbance correction factor determined. The singlet oxygen quantum yields were calculated using the same formulas as used for the direct evaluation.

[6] = test system: human cervical carcinoma (HeLa) cells; assay: (Photo-)cytotoxicity on 2D cell monolayers, resazurin assay, HeLa; assay type: cell-based; details: for PI (480 nm): dark vs 480 nm (10 min, 3.1 J/cm^2); for PI (540 nm): dark vs 540 nm (40 min, 9.5 J/cm^2)
Excerpt: Before an experiment, the cells were passaged three times.

[7] = test system: mouse colon carcinoma (CT-26) cells
[8] = test system: human glioblastoma astrocytoma (U373) cells
Experimental: (§1) The human glioblastoma astrocytoma (U373) cell line was cultured in MEM medium supplemented with 10% FBS, 1% NEAA (non-essential amino-acids) and 1% penicillin/streptomycin. […] The human retinal epithelial cells (RPE-1, non-cancerous cells immortalized with hTERT) were cultured in DMEM-F12 medium supplemented with 10% FBS and 1% penicillin/streptomycin. All cell lines were obtained from the American Type Culture Collection (ATCC) and cultured at 37° C. and 5% CO2. Before an experiment, the cells were passaged three times.
(§2) The cytotoxicity of the compounds was assessed by measuring cell viability using a fluorometric resazurin assay. The cultivated cells were seeded in triplicates in 96 well plates with a density of 4000 cells per well in 100 μL of media. After 24 h, the medium was removed and the cells were treated with increasing concentrations of the compound diluted in cell media achieving a total volume of 200 μL. The cells were incubated with the compound for 4 h. After this time, the media was removed and replaced with 200 μL of fresh medium. For the phototoxicity studies, the cells were exposed to light with an Atlas Photonics LUMOS BIO irradiator. Each well was constantly illuminated with either a 480 nm or 540 nm irradiation. During this time, the temperature was maintained constantly at 37° C. The cells were grown in the incubator for additional 44 h. For the determination of the dark cytotoxicity, the cells were not irradiated and after the medium exchange directly incubated for 44 h. After this time, the medium was replaced with fresh medium containing resazurin with a final concentration of 0.2 mg/mL. After 4 h incubation, the amount of the fluorescent product resorufin was determined upon excitation at 540 nm and measurement its emission at 590 nm using a SpectraMax M2 Microplate Reader (Molecular Devices).
(§3) The obtained data was analyzed with the GraphPad Prism software.

[9] = test system: human glioblastoma astrocytoma (U373) cells; assay: (Photo-)cytotoxicity on 2D cell monolayers, resazurin assay, U373; details: for PI (480 nm): U373, dark vs 480 nm (10 min, 3.1 J/cm^2); for PI (540 nm): U373, dark vs 540 nm (40 min, 9.5 J/cm^2); for IC50: compounds 1-3 as chloride salts
Experimental: as §1, §2, §3

[10] = test system: non-cancerous retinal pigment epithelium (RPE-1) cells; assay: (Photo-)cytotoxicity on 2D cell monolayers, resazurin assay, RPE-1; details: for PI (480 nm): RPE-1, dark vs 480 nm (10 min, 3.1 J/cm^2); for PI (540 nm): RPE-1, dark vs 540 nm (40 min, 9.5 J/cm^2);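 for all read-outs here: cells exposed to compound 4 h, medium exchanged, then irradiated or kept dark, 44 h further growth, viability by resorufin fluorescence (ex 540 nm, em 590 nm)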
Experimental: as §1, §2, §3

[11] = test system: mouse colon carcinoma (CT-26) cells; assay: (Photo-)cytotoxicity on 2D cell monolayers, resazurin assay, CT-26; details: for PI (480 nm): CT-26, dark vs 480 nm (10 min, 3.1 J/cm^2); for PI (540 nm): CT-26, dark vs 540 nm (40 min, 9.5 J/cm^2); for IC50: compounds 1-3 as chloride salts
[12] = dark, 4 h incubation, compounds 1-3 as chloride salts, read-out: IC50 dark
[13] = read-out: IC50 480 nm (10 min, 3.1 J/cm^2), irradiation 480 nm (10 min, 3.1 J/cm^2), compounds 1-3 as chloride salts
[14] = read-out: IC50 540 nm (40 min, 9.5 J/cm^2), irradiation 540 nm (40 min, 9.5 J/cm^2), compounds 1-3 as chloride salts
[15] = read-out: IC50 480 nm (10 min, 3.1 J/cm^2), U373, irradiation 480 nm (10 min, 3.1 J/cm^2)
[16] = read-out: IC50 dark, U373, dark, 4 h incubation
[17] = read-out: IC50 540 nm (40 min, 9.5 J/cm^2), CT-26, irradiation 540 nm (40 min, 9.5 J/cm^2)
[18] = read-out: IC50 dark, CT-26, dark, 4 h incubation

Structure (SMILES) | λem/nm (Emission maximum) [1] [nm] | ϕem (Luminescence Quantum Yield) [2] | τ/ns air (Lifetime) [3] [ns] | τ/ns degassed (Lifetime) [3] [ns] | Singlet oxygen quantum yield, direct 450 nm CH3CN [4] [%] | Singlet oxygen quantum yield, indirect 450 nm CH3CN [5] [%] | Singlet oxygen quantum yield, indirect 450 nm PBS [5] [%] | Singlet oxygen quantum yield, indirect 540 nm CH3CN [5] [%] | Singlet oxygen quantum yield, indirect 540 nm PBS [5] [%] | PI (480 nm) [6] | PI (540 nm) [6] | IC50 [6, 12] [µM] | IC50 [6, 13] [µM] | IC50 [6, 14] [µM] | IC50 [7] [µM] | IC50 [8] [µM] | PI (480 nm) [9] | PI (540 nm) [9] | IC50 [9, 15] [µM] | IC50 [9, 16] [µM] | also measured
CN(C)c1ccc(/C=C/c2ccnc(-c3cc(/C=C/c4ccc(N(C)C)cc4)ccn3)c2)cc1.CN(C)c1ccc(/C=C/c2ccnc(-c3cc(/C=C/c4ccc(N(C)C)cc4)ccn3)c2)cc1.CN(C)c1ccc(/C=C/c2ccnc(-c3cc(/C=C/c4ccc(N(C)C)cc4)ccn3)c2)cc1.F[P-](F)(F)(F)(F)F.F[P-](F)(F)(F)(F)F.[Ru+2] [Compound 2, [Ru((E,E′)-4,4′-Bis[p-(N,N-dimethylamino)styryl]-2,2′-bipyridine)3][PF6]2] | 709 | <0.001 | 48 | 222 | 18 | 25 | 3 | 16 | 1 | >3.4 | >1.9 | > 100 | 29.4 ± 8.3 | 52.3 ± 6.1 | 42.6 ± 3.8 | 61.4 ± 5.6 | >2.0 | >1.6 | 49.1 ± 6 | > 100 | PI (480 nm) [10]: >2.6; PI (540 nm) [10]: >2.0; PI (480 nm) [11]: >2.3; PI (540 nm) [11]: >1.6; IC50 [11, 17]: 62.5 ± 8.2 µM; IC50 [11, 18]: > 100 µM
COc1ccc(/C=C/c2ccnc(-c3cc(/C=C/c4ccc(OC)cc4)ccn3)c2)cc1.COc1ccc(/C=C/c2ccnc(-c3cc(/C=C/c4ccc(OC)cc4)ccn3)c2)cc1.COc1ccc(/C=C/c2ccnc(-c3cc(/C=C/c4ccc(OC)cc4)ccn3)c2)cc1.F[P-](F)(F)(F)(F)F.F[P-](F)(F)(F)(F)F.[Ru+2] [Compound 3, [Ru((E,E′)-4,4′-Bis[p-methoxystyryl]-2,2′-bipyridine)3][PF6]2] | 682 | 0.011 | 76 | 338 | 52 | 48 | 6 | 49 | 5 | >6.5 | >8.8 | > 100 | 15.3 ± 1.4 | 11.3 ± 2.2 | 19.3 ± 2.1 | 51.3 ± 3.4 | >2.4 | >1.9 | 41 ± 3.5 | > 100 | PI (480 nm) [10]: >1.9; PI (540 nm) [10]: >2.2; PI (480 nm) [11]: >5.2; PI (540 nm) [11]: >4.3; IC50 [11, 17]: 23 ± 2.6 µM; IC50 [11, 18]: > 100 µM
